Structures are written as SMILES.

The nature of data set [1]: Partition coefficient determination (1-octanol/phosphate buffer pH 7.4). The class given is physicochemical. Particulars: 1-octanol / 0.02 M sodium phosphate buffer pH 7.4. As to the method:
Measurement of distribution coefficient of [^18F]tracer was performed based on the method described by Wilson et al. [Labelled Compd. Radiopharm., 42:1277-1288 (1999)] using 0.02 M sodium phosphate buffer at pH 7.4 and 1-octanol. Basically, the test tubes containing ˜20 μCi of the radiotracer and 2 mL each of 1-octanol and phosphate buffer were vortexed for 10 min at room temperature and then centrifuged for 5 min. Samples (0.5 mL) from 1-octanol and buffer layers were counted in a Packard Cobra II auto-gamma counter (Perkin-Elmer, Downers Grove, Ill.) and decay corrected. The measurement was repeated three times. The log P7.4 value was calculated as follows: log P7.4 log [counts in octanol phase/counts in buffer phase].

The target of data set [2] is T1, amyloid plaques in sections from postmortem AD brains (Homo sapiens, UniProt P05067).
T1 construct: abundant amyloid plaques or deposits composed of amyloid-β(Aβ) peptides; from tissue; host or cells: postmortem brain tissue sections of frontal lobe from an AD patient
T1 sequence (P05067 672-713 limits assumed): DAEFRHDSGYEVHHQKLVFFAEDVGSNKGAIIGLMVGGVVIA
The data set can be described thus: In vitro film autoradiography of postmortem AD brain sections. The class given is binding. The source says:
FZ 202-1 in postmortem brain tissue sections of frontal lobe from an AD patient. A: AD tissue+[^18F] FZ 202-1. B: [^18F] […] C: […] [^18F]

The conditions of data set [3]: rhesus monkey, in vivo, iv.
Experimental: In order to assess brain uptake and clearance, FZ 202-1 and FZ 202-2 were radiolabeled with fluorine-18. The kinetics of fluorine-18 labeled FZ 202-1 and FZ 202-2 in brain were determined by microPET in rhesus monkeys.
PET study was performed in a male rhesus monkey weighing 6-10 kg using a Concorde MicroPET P4 imaging system. The animal was initially anesthetized with an intramuscular injection of Telazol (3 mg/kg), intubated, and then maintained on a 1% isoflurane/5% oxygen gas mixture throughout the imaging session. The monkey was placed in the PET scanner and the head was immobilized. Blood pressure, heart and respiratory rates, and expired CO2 and oxygen saturation levels were monitored continuously during the PET study. A transmission scan was obtained with a germanium-68 source prior to the PET study for attenuation correction of the emission data. Brain emission scans were performed following the intravenous administration of [^18F]tracer (5 mCi). Serial dynamic transaxial images were acquired for a total of 120 min and then binned for analysis. Emission data acquired were subject to iterative reconstruction (OSEM, two iterations, 40 subsets) with no pre- or postfiltering to provide images with an isotropic resolution of 3 mm fwhm. […]

Regarding `Cc1cc2nc(-c3ccc(N(C)C)cc3)cn2nc1F` [FZ 202-1], the “Log P7.4” value in data set [1] is given as 2.69.

For `CN(C)c1ccc(-c2cn3cc([125I])ccc3n2)cc1` [IMPY, reference compound], the “Log P7.4” value in data set [1] worked out at 3.58.

On to `Cc1cc2nc(-c3ccc(N(C)C)cc3)cn2nc1F` [[^18F]-FZ 202-1], for which the “specific binding after pretreatment with nonradioactive PIB and IMPY” value in data set [2] (AD specimen, FIG. 3: +1 mM PIB, +10 mM IMPY) was “eliminated”. For the same compound, the “specific binding to amyloid plaques (plaque labeling)” value in data set [2] (postmortem AD brain sections, frontal lobe, film autoradiography) is recorded as “clearly observed in cortical gray matter, but not in the white matter”. Moreover, in data set [3] (male), the “radioactivity ratios of peak-to-115 min in cerebellum, frontal cortex and subcortical white matter” value is listed as 2.5-4.9. For the same compound, the “bone uptake of radioactivity in the skull” value in data set [3] is recorded as “No bone uptake”.

As for `Cc1cc(F)nn2cc(-c3ccc(N(C)C)cc3)nc12` [FZ 202-2], in data set [1], the “Log P7.4” value came to 2.83.

(Values after patent US20080219922A1, “Alzheimer's Disease Imaging Agents” (priority 2005, published 2008).)
